{"source": "patent US8568736B2", "about": "“Polypeptide derivatives of parathyroid hormone (PTH)” (The General Hospital Corporation, priority 1999, dated 2013)", "key": {"[1]": {"target": "T1, hPTH-2 Receptor (Homo sapiens, UniProt P49190)", "T1 construct": "expressed in transfected cells; host or cells: LLC-PK1 porcine kidney cells (clone given as hPR2-20, hPR2-22, LLC-P2R-22 or P2R-22)", "T1 sequence (P49190 25-550)": "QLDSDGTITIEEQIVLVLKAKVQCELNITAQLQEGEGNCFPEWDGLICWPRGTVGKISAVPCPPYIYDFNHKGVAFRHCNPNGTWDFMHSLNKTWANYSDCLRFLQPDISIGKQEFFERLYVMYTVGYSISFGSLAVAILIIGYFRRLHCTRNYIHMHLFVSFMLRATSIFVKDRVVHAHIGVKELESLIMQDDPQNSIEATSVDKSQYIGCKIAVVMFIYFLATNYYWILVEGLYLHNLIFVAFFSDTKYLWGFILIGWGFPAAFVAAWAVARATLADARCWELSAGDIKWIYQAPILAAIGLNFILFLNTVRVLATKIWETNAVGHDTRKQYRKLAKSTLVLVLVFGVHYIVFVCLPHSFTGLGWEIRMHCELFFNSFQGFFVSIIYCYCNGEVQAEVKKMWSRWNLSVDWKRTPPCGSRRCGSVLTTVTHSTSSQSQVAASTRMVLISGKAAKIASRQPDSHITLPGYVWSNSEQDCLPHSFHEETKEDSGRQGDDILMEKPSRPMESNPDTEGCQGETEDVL", "test": "cAMP stimulation in LLC-P2R-22 cells (LLC-PK1 stably transfected with hPTH-2 receptor)", "type": "cell-based", "details": "for Emax / EC50 Log M: LLC-P2R-22 cells (hPTH-2 Receptor)", "excerpt": "Stably transfected derivatives of the porcine kidney cell line LLC-PK1, HKRK-B7 (Takasu, H., et al., J. Bone Miner. Res. 14:11-20 (1999)) and hPR2-20, express the human PTH-1 and human PTH-2 receptors respectively. The HKRK-B7 LLC-PK1 cell line expresses the hPTH-1 receptor at ˜1×10^6 receptors/cell (Takasu, H., et al., J. Bone Miner. Res. 14:11-20 (1999)), and the hPR2-22 LLC-PK1 cell line expresses the hPTH-2 receptor at ˜0.8×10^6 receptors/cell (provided by H. Takasu and F. R. Bringhurst, Endocrine Unit, Massachusetts General Hospital).\n(§1) Stimulation of cells with peptide analogs was performed in 24-well plates. Cells were rinsed with 0.5 mL of binding buffer and treated with 200 μL of cAMP assay buffer (Dulbecco's modified Eagle's medium containing 2 mM 3-isobutyl-1-methylxanthine, 1 mg/mL bovine serum albumin, 35 mM Hepes-NaOH, pH 7.4) and 100 μL of binding buffer containing varying amounts of peptide analog (final volume=300 μL). The medium was removed after incubation for 1 h at room temperature, and the cells were frozen (−80° C.), lysed with 0.5 mL 50 mM HCl, and refrozen (−80° C.). The cAMP content of the diluted lysate was determined by radioimmunoassay. Where possible, cAMP EC50 and Maximum response values were determined using nonlinear regression (see below).\nIntracellular cAMP accumulation may be measured as described by Abou-Samra et al., J. Biol. Chem. 262:1129, 1986) or other methods known to those of skill in the art. Intracellular cAMP is extracted by thawing the cells in 1 ml of 50 mM HCl and analyzed by a specific radioimmunoassay using an anti-cAMP antibody (e.g., Sigma, St. Louis, Mo.). A cAMP analog (2′-O-monosuccinyl-adenosine 3′:5′-cyclic monophosphate tyrosyl methyl ester, obtained from Sigma) which is used as a tracer for cAMP is iodinated by the chloramine T method. Free iodine is removed by adsorbing the iodinated cAMP analog onto a C18 Sep-pak cartridge (Waters, Milford, Mass.). After washing with dH2O, the iodinated cAMP analog is eluted from the Sep-pak Cartridge with 40% acetonitrille (ACN) and 0.1% trifluoroacetic acid (TFA). The iodinated cAMP analog is lyophilized, reconstituted in 1 ml 0.1% TFA, and injected into a C18 reverse phase HPLC column (Waters). The column is equilibrated with 10% ACN in 0.1% TFA, and eluted with gradient of 10-30% ACN in 0.1% TFA. This allows separation of the mono-iodinated cAMP analog from the non-iodinated cAMP analog. The tracer is stable for up to 4 months when stored at −20° C. The standard used for the assay, adenosine 3′:5′-cyclic monophosphate, is purchased from Sigma. Samples (1-10 µl of HCl extracts) or standards (0.04-100 fmol/tube) are diluted in 50 mM Na-acetate (pH 5.5), and acetylated with 10 μl of mixture of triethylamine and acetic anhydride (2:1 vol:vol). After acetylation, cAMP antiserum (100 μl) is added from a stock solution (1:4000) made in PBS (pH 7.4), 5 mM EDTA and 1% normal rabbit serum. The tracer is diluted in PBS (pH 7.4) with 0.1% BSA, and added (20,000 cpm/tube). The assay is incubated at 4° C. overnight. The bound tracer is precipitated by adding 100 μl of goat anti-rabbit antiserum (1:20 in PBS) and 1 ml of 7% polyethyleneglycol (MW 5000-6000), centrifuging at 2000 rpm for 30 min. at 4° C. The supernatant is removed and the bound radioactivity is counted in a gamma-counter (Micromedic). To compute the cAMP data, logit calculations were performed in Excel spreadsheets. Typically, the assay sensitivity is 0.1 fmol/tube, and the standard concentration that displaces 50% of tracer is 5 fmol/tube.\nAll calculations were performed using Microsoft Excel. Nonlinear regression analysis of cAMP stimulation data was performed using parameters, defined as the Minimum, Maximum, Emax, midpoint (EC50), and slope of the response curve. The predicted response (yp) for a given dose (x) of peptide was calculated using the following equation: yp=Min+[(Max−Min)/(1+(EC50/x)^slope)]. […]"}, "[2]": {"target": "T2, truncated human PTH-1 receptor, hΔNt (Homo sapiens, UniProt Q03431)", "T2 construct": "expressed in transfected cells; host or cells: COS-7, transient, pcDNA-1 plasmid derived from HK-WT", "T2 sequence (Q03431 with tags, fused parts or gaps limits assumed)": "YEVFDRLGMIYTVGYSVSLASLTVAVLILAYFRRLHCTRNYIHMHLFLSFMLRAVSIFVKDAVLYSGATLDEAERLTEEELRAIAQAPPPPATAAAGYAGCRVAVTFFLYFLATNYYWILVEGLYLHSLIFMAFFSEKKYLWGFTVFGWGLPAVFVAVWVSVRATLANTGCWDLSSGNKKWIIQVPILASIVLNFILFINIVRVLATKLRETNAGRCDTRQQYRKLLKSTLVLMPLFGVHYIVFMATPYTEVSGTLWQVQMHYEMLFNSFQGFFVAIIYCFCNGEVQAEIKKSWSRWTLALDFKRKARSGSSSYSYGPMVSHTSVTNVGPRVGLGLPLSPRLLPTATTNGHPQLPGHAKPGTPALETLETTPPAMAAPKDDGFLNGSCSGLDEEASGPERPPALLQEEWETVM", "test": "cAMP stimulation in COS-7 cells transiently transfected with truncated receptor hDeINt", "type": "cell-based", "details": "for Emax: hDeINt, Emax constrained to peptide #7 (20 μM) response", "description": "COS-7 cells were transfected in 24-well plates when the cells were 85 to 95% of confluency using 200 ng of plasmid DNA that was purified by cesium chloride/ethidium bromide gradient centrifugation for each well. Assays were conducted 72 to 96 hours after transfection.\nas §1\nAll calculations were performed using Microsoft Excel. Nonlinear regression analysis of cAMP stimulation data was performed using parameters, defined as the Minimum, Maximum, Emax, midpoint (EC50), and slope of the response curve. The predicted response (yp) for a given dose (x) of peptide was calculated using the following equation: yp=Min+[(Max−Min)/(1+(EC50/x)^slope)]. […] The statistical significance between two data sets was determined using a one-tailed Student's t-test, assuming unequal variances for the two sets."}, "[3]": {"details": "COS-7 cells, hDeINt truncated receptor, cAMP, read-out: EC50"}, "[4]": {"details": "LLC-PK1 cells expressing PTH-2 receptor, cAMP"}}, "note": "Where two headings read alike, the source gives them in different places. No end group written: not given here."}
{"compound": "CCCC[C@H](NC(=O)[C@H](CCCNC(=N)N)NC(=O)[C@H](CCC(=O)O)NC(=O)[C@@H](NC(=O)[C@H](CO)NC(=O)[C@H](C)NC(=O)[C@H](CC(C)C)NC(=O)[C@H](Cc1c[nH]cn1)NC(=O)[C@H](CCCCN)NC(=O)CNC(=O)[C@H](CC(C)C)NC(=O)[C@H](CC(N)=O)NC(=O)[C@H](Cc1c[nH]cn1)NC(=O)[C@H](CCCC)NC(=O)[C@H](CC(C)C)NC(=O)[C@H](CCC(N)=O)NC(=O)[C@@H](NC(=O)[C@H](CCC(=O)O)NC(=O)[C@H](CO)NC(=O)[C@@H](NC(=O)[C@H](C)N)C(C)C)[C@@H](C)CC)C(C)C)C(=O)N[C@@H](CCC(N)=O)C(=O)N[C@@H](Cc1c[nH]c2ccccc12)C(=O)N[C@@H](CC(C)C)C(=O)N[C@@H](CCCNC(=N)N)C(=O)N[C@@H](CCCCN)C(=O)N[C@@H](CCCCN)C(=O)N[C@@H](CC(C)C)C(=O)N[C@@H](CCC(N)=O)C(=O)N[C@@H](CC(=O)O)C(=O)N[C@H](C(=O)N[C@@H](Cc1c[nH]cn1)C(=O)N[C@@H](CC(N)=O)C(=O)N[C@@H](Cc1ccc(O)cc1)C(N)=O)C(C)C", "note": "[[Nle8, 21, Y34]rPTH(1-34), [Nle^8,21,Tyr^34]-rPTH(1-34)NH2, reference compound]", "values": [{"measurement": "Emax", "setting": "[1]", "value": "744 ± 48", "unit": "picomole/well"}, {"measurement": "Emax", "setting": "[2]; COS-7 cells", "value": "243 ± 63", "unit": "picomole/well"}]}
{"compound": "AVAEIQLMHAR-NH2 [compound 6, AlaValAlaGluIleGlnLeuMetHisAlaArg-amide]", "values": [{"measurement": "EC50 Log M", "setting": "[1]; cAMP", "value": "weakly"}, {"measurement": "EC50", "setting": "[2]; [3]", "value": "27 ± 12.9", "unit": "µM"}, {"measurement": "Emax", "setting": "[2]; COS-7 cells", "value": "243 ± 63", "unit": "picomole/well"}]}
{"compound": "AVAEIQLMHARAKH-NH2 [Peptide #1, AlaValAlaGluIleGlnLeuMetHisAlaArgAlaLysHis-amide]", "values": [{"measurement": "Emax", "setting": "[1]", "value": "292 ± 100", "unit": "picomole/well"}, {"measurement": "potency relative to PTH(1-34)", "setting": "[1]; [4]", "value": "four to five orders of magnitude weaker"}, {"measurement": "stimulation of the PTH-2 receptor (in words)", "setting": "[1]; [4]", "value": "active"}, {"measurement": "EC50", "setting": "[2]; [3]", "value": "2.37 ± 1.06", "unit": "µM"}, {"measurement": "Emax", "setting": "[2]; COS-7 cells", "value": "250 ± 61", "unit": "picomole/well"}, {"measurement": "fold more potent than native PTH(1-14)", "setting": "[2]; truncated hPTH-1 receptor lacking most of the amino-terminal domain", "value": 100, "unit": "fold"}]}
{"compound": "AVAEIQLMHARAKHLNSMERVEWLRKKLQDVHNY-NH2 [Peptide #7]", "values": [{"measurement": "Emax", "setting": "[1]", "value": 677, "unit": "picomole/well"}, {"measurement": "EC50", "setting": "[2]", "value": "0.28 ± 0.16", "unit": "µM"}, {"measurement": "potency relative to rPTH(1-34) or hPTH(1-34) (in words)", "setting": "[2]; COS-7 cells expressing hΔNt", "value": "dramatically more potent"}, {"measurement": "Emax", "setting": "[2]; COS-7 cells", "value": "251 ± 39", "unit": "picomole/well"}]}
{"compound": "AVSEIQLMHNLGKH-NH2 [native rPTH(1-14), AVSEIQLMHNLGKH, reference compound]", "values": [{"measurement": "EC50 Log M", "setting": "[1]; cAMP", "value": "inactive"}, {"measurement": "stimulation of the PTH-2 receptor (in words)", "setting": "[1]; [4]", "value": "did not stimulate"}, {"measurement": "EC50", "setting": "[2]; [3]", "value": "313 ± 121", "unit": "µM"}, {"measurement": "Emax", "setting": "[2]; COS-7 cells", "value": "222 ± 31", "unit": "picomole/well"}]}
